As usually defined, the Cmax is the peak of the concentration-time curve. Broadly, the Tmax is the time at which the peak concentration occurs. Usually EC50 stands for the concentration needed to bring the measured effect to its halfway point. A word on the Ki: it is a dissociation constant, usually derived from enzyme kinetics or from competition with a known ligand.

Three compounds from publication PMC11089204 (Frontiers in Pharmacology, 2024) can be followed below.

Series [1] in a line: Pharmacokinetics and metabolites in mouse plasma after oral psilocybin. The series is classed as in vivo, C57BL/6J mice. The conditions noted are these: for half-life / Cmax / Tmax: male, C57BL/6J, po, n = 5; for half-life: mouse, plasma, 3 mg/kg, read-out: elimination half-life t1/2 (mean ± SD) (converted); for Cmax: read-out: Cmax (mean ± SD); for Tmax: read-out: tmax (mean ± SD). Here is the method:
C57BL/6J adult male mice (Janvier, Le Genest-Saint-Isle, France) were maintained in littermate pairs in standard cages (containing sawdust, a sleeping chamber, tissue paper, and a wood stick) with water and pellet food available ad libitium. The colony room was on a reversed light-dark cycle (dark phase 07:00 to 19:00) with temperature at 22°C and humidity at 50–60%. A total of 10 mice were dosed orally with either 3 mg/kg bodyweight psilocybin (n = 5) or saline solution (n = 5). Dosing and blood sampling were conducted between 09:00 and 13:00. The mouse was placed in a plastic restrainer with the tail protruding through a hole in the end of the tube. The tail was immersed in warm water for 1 min for vasodilation and then a small incision was made on the lateral tail surface near the distal tip. 50 μL of blood was massaged gently into an EDTA-coated capillary blood tube (Mircovette, Sarstedt, Nümbrecht, Germany). The first (baseline) blood sample was collected directly before compound administration via oral gavage and the mouse was then returned to the home cage. Further blood samples were collected at 15, 30, 60, and 120 min post-treatment. Each sample was drawn from the same incision site, with mice maintained in the home cage in the intervening periods. The blood samples were stored on ice and centrifuged for 10 min at 780 × g and 4°C. Subsequently, the plasma was transferred into cryotubes (Protein LoBind, Eppendorf) and stored at −80 °C until analysis. All procedures were conducted under a permit for animal experimentation (ZH038/2022) issued by the Veterinary Office Zurich in accordance with the Animal Protection Act (1978) of Switzerland. The use of psilocybin was authorized by the Federal Office of Public Health (FOPH).
Pharmacokinetic parameters were calculated using Phoenix WinNonlin software (version 8.1.0, Certara, Princeton, USA). The elimination half-life (t1/2, min) was assessed as t1/2 = ln(2)/λ, while the elimination constant was calculated by linear regression in the terminal elimination phase. The maximal plasma concentration (Cmax, ng/mL) and the time to reach this concentration (tmax, h) were direct read-outs of the graphical plots.

A further series addresses T1, human 5-HT2B receptor (Homo sapiens, UniProt P41595).
T1 construct: expressed in transfected cells; host or cells: NIH/3T3
The series can be described thus: 5-HT activation potency (IP1 accumulation), 5-HT2B. The series is classed as cell-based. The conditions noted are these: NIH/3T3 cells, read-out: h5-HT2B Activation potency EC50 ± SD. Here is the method:
(§1) NIH/3T3 cells stably expressing the human 5-HT1A, 5-HT2A, and 5-HT2B receptors were seeded at a density of 3,000 cells (5-HT1A and 5-HT2A) or 4,000 cells (5-HT2B) in 384-well plates using Opti-MEM medium from Gibco (ThermoFisher, Life Technologies, Zug, Switzerland). Subsequently, the test compounds were introduced, and the plates were incubated for 90 min at 37°C, followed by a 60 min incubation with Anti-IP1-Cryptate and IP1-d2 at room temperature. The formation of stimulated IP1 was quantified by homogeneous time-resolved fluorescence (HTRF) measurements using a BioTek Synergy H1 microplate reader (Agilent Technologies, Basel, Switzerland). The obtained raw data for receptor activation were subjected to normalization, wherein the baseline signal was set at 0%, and the maximum signal stimulated by 5-HT at the specific receptor was established as 100%.

In series [2] the target is T2, MAO-A in human liver microsomes (HLM) (Homo sapiens, UniProt P21397).
T2 construct: tissue Corning Life Sciences B.V; host or cells: pooled human liver microsomes
T2 sequence (P21397 1-527): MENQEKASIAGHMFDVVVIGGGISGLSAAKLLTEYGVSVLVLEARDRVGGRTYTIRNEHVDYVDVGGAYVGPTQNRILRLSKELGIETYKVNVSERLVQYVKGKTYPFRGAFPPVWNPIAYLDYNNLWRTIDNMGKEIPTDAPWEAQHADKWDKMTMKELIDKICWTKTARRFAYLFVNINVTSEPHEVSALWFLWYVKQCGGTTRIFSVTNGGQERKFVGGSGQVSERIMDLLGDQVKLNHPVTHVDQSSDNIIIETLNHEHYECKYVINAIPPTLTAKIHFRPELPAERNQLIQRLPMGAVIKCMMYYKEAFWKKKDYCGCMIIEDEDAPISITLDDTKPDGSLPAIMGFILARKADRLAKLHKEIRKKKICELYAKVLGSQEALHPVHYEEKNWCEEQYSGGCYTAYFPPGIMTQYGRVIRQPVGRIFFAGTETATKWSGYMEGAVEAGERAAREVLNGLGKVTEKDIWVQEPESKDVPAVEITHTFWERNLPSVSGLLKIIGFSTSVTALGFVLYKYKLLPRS
The series can be described thus: Monoamine oxidase A inhibition in human liver microsomes. The series is classed as in vitro ADME. The conditions noted are these: for biotransformation on incubation with HLM: 1,000 nM 4-HIAA or 4-HTP incubated with HLM; for metabolite concentration formed from psilocin (mean ± SD) / metabolite formation from psilocin in presence of clorgyline: 1,000 nM psilocin; for metabolite concentration formed from psilocin (mean ± SD): HLM alone, t = 240 min; for metabolite formation from psilocin in presence of clorgyline: HLM with MAO-A inhibitor clorgyline.

A further series has as its target T3, human 5-HT2C receptor (Homo sapiens, UniProt P28335).
T3 construct: expressed in transfected cells; host or cells: HEK 293 membrane preparations
The series can be described thus: biochemical. As to conditions: HEK 293 membranes, [3H]mesulergine; read-out: h5-HT2C Receptor binding Ki ± SD.

The target of the next series is T4, recombinant MAO-A (Homo sapiens, UniProt P21397).
T4 construct: purchased Corning Life Sciences B.V
T4 sequence (P21397 1-527): T2 sequence (P21397 1-527)
The series can be described thus: Incubation with recombinant MAO-A enzymes. The series is classed as in vitro ADME. The conditions noted are these: for metabolite concentration formed from psilocin: 300 min; for metabolite formation from psilocin in presence of clorgyline: rec. MAO-A with clorgyline. Here is the method: Corning UltraPool human liver microsomes (HLM) 150 (20 mg/mL), human intestinal microsomes (HIM) pool (10 mg/mL) as well as recombinant human CYP enzymes (with P450 oxidoreductase, OR) including CYP1A2+OR (0.5 nmol), CYP2B6+OR (0.5 nmol), CYP2C8+OR (1.0 nmol), CYP2C9*1+OR (1 nmol), CYP2C19+OR (0.5 nmol), CYP2D6*1+OR (0.5 nmol), CYP2E1+OR + cytochrome b5 (1 nmol), CYP3A4+OR + cytochrome b5 (0.5 nmol), MAO-A (5 mg/mL), MAO-B (5 mg/mL), and UGT1A10 (5 mg/mL) were purchased from Corning Life Sciences B.V (Amsterdam, Netherlands). All microsomes and recombinant enzyme solutions were aliquoted and stored at −80 °C until further use.
The MAO inhibition assay was based on the assay described in section 2.5.1 and performed identically if not otherwise stated.

For series [3], the target named is T5, human 5-HT2A receptor (Homo sapiens, UniProt P28223). The series can be described thus: 5-HT activation potency (IP1 accumulation), 5-HT2A. The conditions noted are these: NIH/3T3 cells, read-out: h5-HT2A Activation potency EC50 ± SD. The arrangement: expressed in transfected cells. The series is classed as cell-based. As to the method: as §1
T5 sequence (P28223 whole entry): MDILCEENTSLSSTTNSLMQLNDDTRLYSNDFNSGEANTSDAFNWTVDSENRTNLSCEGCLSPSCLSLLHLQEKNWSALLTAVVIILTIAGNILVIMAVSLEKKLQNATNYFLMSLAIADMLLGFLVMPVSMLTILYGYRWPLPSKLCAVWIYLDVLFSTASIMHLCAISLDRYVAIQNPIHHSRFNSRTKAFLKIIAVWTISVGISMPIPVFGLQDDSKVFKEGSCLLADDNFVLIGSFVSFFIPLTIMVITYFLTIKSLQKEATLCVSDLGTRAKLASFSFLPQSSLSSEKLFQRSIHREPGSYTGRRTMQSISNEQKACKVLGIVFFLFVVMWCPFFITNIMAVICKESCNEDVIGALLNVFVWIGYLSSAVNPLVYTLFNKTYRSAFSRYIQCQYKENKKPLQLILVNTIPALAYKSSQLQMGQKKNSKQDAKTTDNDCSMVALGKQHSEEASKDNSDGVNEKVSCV
Series [4] addresses T5, human 5-HT2A receptor. The series can be described thus: Radioligand receptor binding, 5-HT2A. The conditions noted are these: HEK 293 membranes, [3H]ketanserin; read-out: h5-HT2A Receptor binding Ki ± SD. Also on record: expressed in transfected cells; host or cells: HEK 293 membrane preparations.
Setting [5] is: mouse plasma, 3 mg/kg psilocybin p.o.

T1 sequence (P41595 whole entry): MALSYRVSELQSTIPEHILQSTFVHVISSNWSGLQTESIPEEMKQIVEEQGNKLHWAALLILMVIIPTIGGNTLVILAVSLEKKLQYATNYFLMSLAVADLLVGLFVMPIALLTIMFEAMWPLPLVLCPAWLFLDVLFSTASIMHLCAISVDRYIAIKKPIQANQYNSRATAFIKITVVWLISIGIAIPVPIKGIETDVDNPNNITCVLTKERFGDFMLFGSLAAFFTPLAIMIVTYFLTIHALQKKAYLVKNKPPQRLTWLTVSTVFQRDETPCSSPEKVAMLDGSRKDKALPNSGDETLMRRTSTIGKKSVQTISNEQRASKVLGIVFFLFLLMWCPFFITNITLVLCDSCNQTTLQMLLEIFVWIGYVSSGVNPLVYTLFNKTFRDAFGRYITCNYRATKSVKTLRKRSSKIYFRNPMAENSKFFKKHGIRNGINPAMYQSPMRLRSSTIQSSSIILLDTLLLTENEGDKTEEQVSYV
T3 sequence (P28335 33-458): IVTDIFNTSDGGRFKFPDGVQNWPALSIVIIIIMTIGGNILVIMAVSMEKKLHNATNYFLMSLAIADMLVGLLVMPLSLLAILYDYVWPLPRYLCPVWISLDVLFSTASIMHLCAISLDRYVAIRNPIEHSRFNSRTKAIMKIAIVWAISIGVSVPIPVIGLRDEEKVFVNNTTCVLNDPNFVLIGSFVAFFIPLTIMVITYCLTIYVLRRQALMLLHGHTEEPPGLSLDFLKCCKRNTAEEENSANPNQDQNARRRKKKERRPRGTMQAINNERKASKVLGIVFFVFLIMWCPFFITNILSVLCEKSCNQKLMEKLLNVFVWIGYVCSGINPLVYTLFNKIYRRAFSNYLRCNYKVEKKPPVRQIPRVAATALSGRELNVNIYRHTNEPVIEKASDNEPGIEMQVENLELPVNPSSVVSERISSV

For the compound `O=C(O)Cc1c[nH]c2cccc(O)c12` [4-HIAA, 4-hydroxyindole-3-acetic acid], in series [1] (setting [5]), the half-life was 45 ± 6.6 min, the Cmax amounted to 84.9 ± 17.7 ng/mL and the Tmax amounted to 18 ± 6.6 min. The “concentrations relative to psilocin (lower)” value in series [1] (mouse plasma) is on record as 2 fold. Also, the “elimination half-life in mice relative to humans (shorter)” value in series [1] (mouse versus human) is recorded as “more than 2 fold”. The EC50 at human 5-HT2B receptor was > 10 µM. In series [2], the “biotransformation on incubation with HLM” value is “did not lead to any biotransformation”, the “metabolite concentration formed from psilocin (mean ± SD)” value turned out to be 8.5 ± 3.8 nM and the “metabolite formation from psilocin in presence of clorgyline” value (from here on “metabolite formation from psilocin”) was “complete inhibition”. Besides, at human 5-HT2C receptor, the Ki was > 10 µM. Besides, the “metabolite concentration formed from psilocin” value at recombinant MAO-A (1,000 nM psilocin, rec. MAO-A) worked out at 20.1 ± 2.8 nM. Also, at recombinant MAO-A, the “metabolite formation from psilocin” value is recorded as “inhibited”. The EC50 on human 5-HT2A receptor [3] was > 10 µM. Also, at human 5-HT2A receptor [4], the inhibition constant Ki was > 10 µM.
For `CN(C)CCc1c[nH]c2cccc(O)c12` [psilocin, 4-hydroxy-N,N-dimethyltryptamine], in series [1] (setting [5]), the half-life was 54.6 ± 6.6 min, the Cmax is 198 ± 28 ng/mL and the Tmax came to 18 ± 6.6 min. For the same compound, the “change of psilocin concentration” value in series [2] (1,000 nM psilocin with HLM) was “did not visibly decrease”. Besides, on recombinant MAO-A (1,000 nM psilocin, rec. MAO-A), the “change of psilocin concentration” value was “did not visibly decrease”.
As to `OCCc1c[nH]c2cccc(O)c12` [4-HTP, 4-hydroxytryptophol], the “detection in mouse plasma” value in series [1] (3 mg/kg psilocybin p.o.) is on record as “could not be observed”. The EC50 at human 5-HT2B receptor and at human 5-HT2A receptor [3] was > 10 µM in each case. For the same compound, the “biotransformation on incubation with HLM” value in series [2] was “did not lead to any biotransformation”. Besides, the “metabolite concentration formed from psilocin (mean ± SD)” value in series [2] was found to be 25.3 ± 6.0 nM. The “metabolite formation from psilocin” value in series [2] is “complete inhibition”; at recombinant MAO-A, “inhibited”. The Ki at human 5-HT2C receptor and at human 5-HT2A receptor [4] was > 10 µM throughout. For the same compound, on recombinant MAO-A (1,000 nM psilocin, rec. MAO-A), the “metabolite concentration formed from psilocin” value is given as 16.9 ± 2.9 nM.
